Measurements published in patent US20140187548A1, “6 SUBSTITUTED IMIDAZOPYRAZINES FOR USE AS MPS-1 AND TKK INHIBITORS IN THE TREATMENT OF HYPERPROLIFERATIVE DISORDERS” (BAYER INTELLECTUAL PROPERTY GMBH, priority 2010, published 2014).

The compounds below were run against T1, human kinase Mps-1 (Homo sapiens, UniProt P33981) (assay: Mps-1 kinase assay (TR-FRET)). Conditions: N-terminally GST-tagged human full length recombinant Mps-1; 10 μM ATP; 1 μM peptide substrate; 15 min pre-incubation; 60 min at 22° C.
T1 construct: N-terminally GST-tagged human full length recombinant Mps-1 kinase; GST (N); purchased Invitrogen, Karslruhe, Germany PV4071
T1 sequence (P33981 1-857): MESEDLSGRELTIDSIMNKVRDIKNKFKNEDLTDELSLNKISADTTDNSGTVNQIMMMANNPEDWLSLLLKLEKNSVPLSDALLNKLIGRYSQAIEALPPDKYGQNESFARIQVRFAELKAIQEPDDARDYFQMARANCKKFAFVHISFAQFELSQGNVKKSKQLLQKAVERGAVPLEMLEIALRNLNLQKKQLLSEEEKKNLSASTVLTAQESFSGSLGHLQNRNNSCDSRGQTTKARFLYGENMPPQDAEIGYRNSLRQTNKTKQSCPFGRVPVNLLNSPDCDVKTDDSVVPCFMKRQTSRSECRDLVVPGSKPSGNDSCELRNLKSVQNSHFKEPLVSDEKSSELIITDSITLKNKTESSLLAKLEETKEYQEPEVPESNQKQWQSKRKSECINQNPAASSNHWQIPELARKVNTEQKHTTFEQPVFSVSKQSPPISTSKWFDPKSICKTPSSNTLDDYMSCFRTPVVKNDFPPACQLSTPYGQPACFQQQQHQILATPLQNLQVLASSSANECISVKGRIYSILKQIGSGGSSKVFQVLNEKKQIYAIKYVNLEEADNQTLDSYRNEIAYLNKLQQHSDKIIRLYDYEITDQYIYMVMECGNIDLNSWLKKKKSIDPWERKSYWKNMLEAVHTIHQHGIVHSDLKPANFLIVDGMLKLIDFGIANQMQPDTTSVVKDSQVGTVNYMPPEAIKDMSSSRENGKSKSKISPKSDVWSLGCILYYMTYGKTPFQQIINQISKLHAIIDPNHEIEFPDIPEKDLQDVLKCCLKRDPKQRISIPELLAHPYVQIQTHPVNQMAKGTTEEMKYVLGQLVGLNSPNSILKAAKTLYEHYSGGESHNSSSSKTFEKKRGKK
Format: biochemical
Description: The human kinase Mps-1 phosphorylates a biotinylated substrate peptide. Detection of the phosphorylated product is achieved by time-resolved fluorescence resonance energy transfer (TR-FRET) from Europium-labelled anti-phospho-Serine/Threonine antibody as donor to streptavidin labelled with cross-linked allophycocyanin (SA-XLent) as acceptor. Compounds are tested for their inhibition of the kinase activity.
N-terminally GST-tagged human full length recombinant Mps-1 kinase (purchased from Invitrogen, Karslruhe, Germany, cat. no PV4071) was used. As substrate for the kinase reaction a biotinylated peptide of the amino-acid sequence […] (C-terminus in amide form, purchased from Biosynthan GmbH, Berlin) was used.
The concentration of Mps-1 in the assay was adjusted to the activity of the enzyme lot and was chosen appropriate to have the assay in the linear range, typical enzyme concentrations were in the range of about 1 nM (final conc. in the 5 μl assay volume).
The resulting mixture was incubated 1 h at 22° C. to allow the binding of the phosphorylated peptide to the anti-phospho(Ser/Thr)-Europium-antibody. Subsequently the amount of phosphorylated substrate was evaluated by measurement of the resonance energy transfer from the Europium-labelled anti-phospho(Ser/Thr) antibody to the Streptavidin-XLent. Therefore, the fluorescence emissions at 620 nm and 665 nm after excitation at 350 nm was measured in a Viewlux TR-FRET reader (PerkinElmer LAS, Rodgau-Jügesheim, Germany). The “blank-corrected normalized ratio” (a Viewlux specific readout, similar to the traditional ratio of the emissions at 665 nm and at 622 nm, in which blank and Eu-donor crosstalk are subtracted from the 665 nm signal before the ratio is calculated) was taken as the measure for the amount of phosphorylated substrate.

First: CC(C)CNc1nc(-c2cccc(C#N)c2)cn2c(-c3ccc(C(=O)NC4CC4)cc3)cnc12 [Example 1-72, 4-{6-(3-cyanophenyl)-8-[(2-methylpropyl)amino]imidazo[1,2-a]pyrazin-3-yl}-N-cyclo-propylbenzamide]
Second: CC(C)CNc1nc(-c2cccc(F)c2)cn2c(-c3ccc(C(=O)NC4CC4)cc3)cnc12 [Example 1-40, N-cyclopropyl-4-{6-(3-fluorophenyl)-8-[(2-methylpropyl)amino]imidazo[1,2-a]pyrazin-3-yl}benzamide]
The IC50 of the first is 1.5-fold lower: 4.6 nM for the first, 6.9 nM for the second. The first is the more potent here.

Going from `Cc1cc(-c2cnc3c(NCC(C)C)nc(-c4ccc(F)cc4)cn23)ccc1C(=O)NC1CC1` [Example 10-3, N-cyclopropyl-4-{6-(4-fluorophenyl)-8-[(2-methylpropyl)amino]imidazo[1,2-a]pyrazin-3-yl}-2-methylbenzamide] to `Cc1cc(-c2cnc3c(NCC(C)(C)O)nc(-c4ccc(F)cc4)cn23)ccc1C(=O)NC1CC1` [Example 1-136, N-cyclopropyl-4-{6-(4-fluorophenyl)-8-[(2-hydroxy-2-methylpropyl)amino]imidazo[1,2-a]pyrazin-3-yl}-2-methylbenzamide], the IC50 rises from 5.1 nM to 7.9 nM (1.5-fold). The first is the more potent here.

`Cc1cc(-c2cnc3c(NCC4CCOC4)nc(-c4ccc(F)cc4)cn23)ccc1C(=O)NC1CC1` (stereo not shown) [Example 10-11, N-cyclopropyl-4-{6-(4-fluorophenyl)-8-[(tetrahydrofuran-3-yl-methyl)amino]imidazo [1,2-a]pyrazin-3-yl}-2-methylbenzamide] and `O=C(NC1CC1)c1ccc(-c2cnc3c(NCCC(F)(F)F)nc(-c4ccc(F)cc4)cn23)cc1F` [Example 1-112, N-cyclopropyl-2-fluoro-4-{6-(4-fluorophenyl)-8-[(3,3,3-trifluoropropyl)amino]imidazo[1,2-a]pyrazin-3-yl}benzamide] are within 1.5-fold of each other in IC50: 3.3 nM for the first, 2.6 nM for the second.

`Cc1cccc(-c2cn3c(-c4ccc(C(=O)NC5CC5)cc4)cnc3c(NCC(C)C)n2)c1C` [Example 1-9, N-cyclopropyl-4-{6-(2,3-dimethylphenyl)-8-[(2-methylpropyl)amino]imidazo[1,2-a]pyrazin-3-yl}benzamide] and `CC(C)CNc1nc(-c2cccc(O)c2)cn2c(-c3ccc(C(=O)NC4CC4)cc3)cnc12` [Example 1-66, N-cyclopropyl-4-{6-(3-hydroxyphenyl)-8-[(2-methylpropyl)amino]imidazo[1,2-a]pyrazin-3-yl}benzamide] are within 1.5-fold of each other in IC50: 2.4 nM for the first, 2.2 nM for the second.

Compared with `Cc1cc(-c2cnc3c(NCCC(F)(F)F)nc(-c4ccc(CO)cc4)cn23)ccc1C(=O)NC1CC1` [Example 1-123, N-cyclopropyl-4-{6-[4-(hydroxymethyl)phenyl]-8-[(3,3,3-trifluoropropyl)amino]imidazo[1,2-a]pyrazin-3-yl}-2-methyl-benzamide], `CN(C)c1ccc(-c2cn3c(-c4ccc(C(=O)NC5CC5)c(F)c4)cnc3c(NCCC(F)(F)F)n2)cc1` [Example 1-113, N-cyclopropyl-4-{6-[4-(dimethylamino)phenyl]-8-[(3,3,3-trifluoropropyl)amino]imidazo[1,2-a]pyrazin-3-yl}-2-fluoro-benzamide] is 9.3-fold higher in IC50: 1.2 nM for the first, 11.2 nM for the second. The first is the more potent here.

Compared with `O=C(NC1CC1)c1ccc(-c2cnc3c(NCCN4CCNC4=O)nc(-c4ccccc4)cn23)cc1` [Example 2-47, N-cyclopropyl-4-(8-{[2-(2-oxoimidazolidin-1-yl)ethyl]amino}-6-phenylimidazo[1,2-a]pyrazin-3-yl)benzamide], `NCCNc1nc(-c2ccccc2)cn2c(-c3ccc(C(=O)NC4CC4)cc3)cnc12` [Example 2-69, 4-{8-[(2-Aminoethyl)amino]-6-phenylimidazo[1,2-a]pyrazin-3-yl}-N-cyclopropylbenzamide] is 2.7-fold higher in IC50: 20 nM for the first, 54.8 nM for the second. The first is the more potent here.

`CC(C)CNc1nc(-c2cccc3cnccc23)cn2c(-c3ccc(C(=O)NC4CC4)cc3)cnc12` [Example 1-32, N-cyclopropyl-4-{6-(iso-quinolin-5-yl)-8-[(2-methylpropyl)amino]imidazo[1,2-a]pyrazin-3-yl}benzamide] and `CC(C)CNc1nc(-c2cccc3ncccc23)cn2c(-c3ccc(C(=O)NC4CC4)cc3)cnc12` [Example 1-20, N-cyclopropyl-4-{8-[(2-methylpropyl)amino]-6-(quinolin-5-yl)imidazo [1,2-a]pyrazin-3-yl} benzamide] are within 1.5-fold of each other in IC50: 1.3 nM for the first, 1 nM for the second.

`CC(C)CNc1nc(-c2ccc3ccccc3c2)cn2c(-c3ccc(C(=O)NC4CC4)cc3)cnc12` [Example 1-42, N-cyclopropyl-4-{8-[(2-methylpropyl)amino]-6-(naphthalen-2-yl)imidazo[1,2-a]pyrazin-3-yl}benzamide] and `CC(C)CNc1nc(-c2ccc(C(C)C)cc2)cn2c(-c3ccc(C(=O)NC4CC4)cc3)cnc12` [Example 1-59, N-cyclopropyl-4-{8-[(2-methylpropyl)amino]-6-[4-(propan-2-yl)phenyl]imidazo[1,2-a]pyrazin-3-yl}benzamide] are within 1.5-fold of each other in IC50: 49 nM for the first, 55.7 nM for the second.

Compared with `CC(C)CNc1nc(-c2ccc(N(C)C)cc2)cn2c(-c3ccc(C(=O)NC4CC4)c(F)c3)cnc12` [Example 1-110, N-cyclopropyl-4-{6-[4-(dimethylamino)phenyl]-8-[(2-methylpropyl)amino]imidazo[1,2-a]pyrazin-3-yl}-2-fluoro-benzamide], `CC(C)CNc1nc(-c2ccc(C#N)cc2)cn2c(-c3ccc(C(=O)NC4CC4)cc3)cnc12` [Example 1-73, 4-{6-(4-cyanophenyl)-8-[(2-methylpropyl)amino]imidazo[1,2-a]pyrazin-3-yl}-N-cyclo-propylbenzamide] is 6-fold lower in IC50: 12.6 nM for the first, 2.1 nM for the second.

Going from `O=C(NC1CC1)c1ccc(-c2cnc3c(NCC4CCCO4)nc(-c4ccccc4)cn23)cc1` (stereo not shown) [Example 2-8, N-cyclopropyl-4-{6-phenyl-8-[(tetrahydrofuran-2-ylmethyl)amino]imidazo[1,2-a]pyrazin-3-yl}benzamide] to `O=C(NC1CC1)c1ccc(-c2cnc3c(NCc4cccc(Cl)c4)nc(-c4ccccc4)cn23)cc1` [Example 2-6, 4-{8-[(3-chlorobenzyl)amino]-6-phenylimidazo [1,2-a]pyrazin-3-yl}-N-cyclopropylbenzamide], the IC50 rises from 2.1 nM to 13.8 nM (6.6-fold). The first is the more potent here.

Compared with `Cn1nccc1CNc1nc(-c2ccccc2CO)cn2c(-c3ccc(C(=O)NC4CC4)c(F)c3)cnc12` [Example 1-121, N-cyclopropyl-2-fluoro-4-(6-[2-(hydroxymethyl)phenyl]-8-{[(1-methyl-1H-pyrazol-5-yl)methyl]amino}imidazo[1,2-a]pyrazin-3-yl)benzamide], `Cc1cc(-c2cnc3c(NCC(C)(C)O)nc(-c4ccccc4)cn23)ccc1C(=O)NC1CC1` [Example 1-137, N-cyclopropyl-4-{8-[(2-hydroxy-2-methylpropyl)amino]-6-phenylimidazo[1,2-a]pyrazin-3-yl}-2-methylbenzamide] is 2.2-fold lower in IC50: 11.1 nM for the first, 5.1 nM for the second. The second is the more potent here.

First: O=C(NC1CC1)c1ccc(-c2cnc3c(NCc4ccc(OC(F)(F)F)cc4)nc(-c4ccccc4)cn23)cc1 [Example 2-22, N-cyclopropyl-4-(6-phenyl-8-{[4-(trifluoromethoxy)benzyl]amino}imidazo[1,2-a]pyrazin-3-yl)benzamide]
Second: CC(C)CNc1nc(-c2cccc(C(=O)N3CCCC3)c2)cn2c(-c3ccc(C(=O)NC4CC4)cc3)cnc12 [Example 1-54, N-cyclopropyl-4-{8-[(2-methylpropyl)amino]-6-[3-(pyrrolidin-1-yl-carbonyl)phenyl]imidazo [1,2-a]pyrazin-3-yl} benzamide]
The IC50 of the first is 35-fold higher: 217 nM for the first, 6.2 nM for the second. The second is the more potent here.

`CCC(C)c1cn2c(-c3ccc(C(=O)NC4CC4)cc3)cnc2c(NCC(C)C)n1` (stereo not shown) [Example 11-1, 4-{6-(butan-2-yl)-8-[(2-methylpropyl)amino]imidazo[1,2-a]pyrazin-3-yl}-N-cyclopropylbenzamide] gave an IC50 of 5.4 nM.
